Target: PD-L1
Experiment: FACS binding, rat
Conditions: half-maximal binding
Procedure: All samples were run on a […] FACSCalibur and Mean Fluorescence Intensity of PD-L1 binding data as a function of anti-PD-L1 antibody concentration was analyzed using Tree Star, Inc. FlowJo® software; EC50, values (Ab concentration associated with half-maximal binding) were calculated using Kaleidagraph. In addition, equilibrium binding studies were performed to define accurate affinities (Kds) for YW24355570 binding to human and mouse PD-L1 expressed on 293 cells (Example 3B).

“YW243.55.S70: affinity-matured phage anti-PD-L1 antibody derived from YW243.55, selected as the primary candidate; full length IgG1” showed an EC50 of 0.8 nM.
